# Test results published in publication PMC4418468 (BioTechniques, 2009).
# Target: CXCR7 (Homo sapiens, UniProt P25106)
# Assay: competition of CXCL12-Gaussia luciferase binding to intact cells at […] °C
# Type: cell-based
# Chain of CXCR7 (P25106 whole entry): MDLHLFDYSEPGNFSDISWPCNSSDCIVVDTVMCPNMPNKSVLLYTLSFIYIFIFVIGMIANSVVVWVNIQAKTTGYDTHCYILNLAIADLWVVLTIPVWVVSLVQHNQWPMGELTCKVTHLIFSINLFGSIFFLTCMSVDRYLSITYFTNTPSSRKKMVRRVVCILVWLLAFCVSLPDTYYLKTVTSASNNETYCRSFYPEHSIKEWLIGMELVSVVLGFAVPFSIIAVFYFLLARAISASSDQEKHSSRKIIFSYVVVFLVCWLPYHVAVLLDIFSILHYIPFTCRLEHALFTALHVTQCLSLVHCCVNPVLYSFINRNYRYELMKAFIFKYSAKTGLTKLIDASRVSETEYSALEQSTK
row,EC50 [nM],Substance
1,~250,CCX754
2,~18,CCX733
